The source of these data is patent US20240376148A1, “MEDICAMENT FOR INHIBITING DIETARY OBESITY AND POLYPEPTIDE USED THEREFOR” (INSTITUTE OF ZOOLOGY, CHINESE ACADEMY OF SCIENCES, priority 2022, published 2024).

Type in all cases: in vivo
The test system of one assay is fecal flora. Briefly: 16s amplicon sequencing of fecal flora of SPF mice. The conditions noted are these: SPF mice feces. Here is the method: At this time, in order to further confirm whether the reason for the weight loss of the SPF mice was related to the change of the ecological structure of the intestinal flora, the feces of mice in NC, HFD and D3 groups collected in the previous SPF mice experiment were analyzed by 16 s amplicon sequencing. sequencing method (reference: Quan, LH, et al. Myristoleic acid produced by enterococci reduces obesity through brown adipose tissue activation. Gut 69, 1239-1247 (2020).) was used to analyze the fecal flora of mice.

The nature of assay [1]: Short-term feed intake experiment of SPF rats. The conditions noted are these: after 8 weeks of treatment, p<0.05. The source says: A total of 2 treatments were set up, with 5 rats in each treatment, and each treatment was subjected to different feeding treatments, specifically as follows:
HFD group (i.e. high-fat diet group): 8 rats were fed with high-fat diet, the high-fat diet used was rodent feed (containing 60 kcal % fat, D12492), free diet and drinking water for 8 weeks.
D3 group (i.e. high-fat diet+D3 medicine intragastric administration group): 10 rats were fed with high-fat diet, free diet and drinking water. Intragastrically administrated with HD (choose D3), 0.5 mg-2 mg/Kg body weight, 0.5 ml, once/day for 8 weeks.
According to the above treatment, it was carried out for 8 weeks, and then within 1 week, the rats were starved for one day and then given feed, and the feed intake of the animals in the following day was recorded. That is, food weights were recorded every other day (4 separate measurements) and the average daily intake was determined for each 2-day period and calculated for each individual during the one-week measurement period. The obtained were the results of the short-term intake statistics (unit: g/only/day).

A further assay concerns A. muciniphila. Description: qPCR of abundance of A. muciniphila in intestine of rhesus monkeys. The conditions noted are these: macaque, p<0.05. The source says: FIGS. 7A-7H are a graph showing the effect of using D3 on rats and rhesus monkeys in Example 2 of the present invention. FIG. 7A is the schematic diagram of sampling time point in rats; FIG. 7B is the graph showing the results of the growth rate of body weight with different feeding treatments of the rat; FIG. 7C is the graph showing the results of the short-term feed intake measurement of the rat; FIG. 7D is the graph showing the results of the qPCR detection of the abundance of A. muciniphila in intestine of rats with different feeding treatment; FIG. 7E is a schematic diagram of the sampling time point in rhesus monkeys; FIG. 7F is the graph showing the results of the growth rate of body weight with different feeding treatments of rhesus monkeys; FIG. 7G is the feed intake monitoring graphs of rhesus monkeys with different feeding treatments; FIG. 7H is the graph showing the results of the qPCR detection of the abundance of A. muciniphila in intestine of rhesus monkeys with different feeding treatment. The data shown in the figure are mean±standard deviation, the number of repetitions is 5-10, and the significant difference of each group is analyzed by Wilcoxon test. * representing a significance analysis result of P<0.05, ** representing a significance analysis result of P<0.01.
Food intake (unit: g/only/week) and body weight were monitored weekly. […]
On the technique in general: In qPCR the cycle at which signal appears reflects the starting amount.

Another assay concerns Guca2b. Briefly: Ileum transcriptome sequencing and qPCR gene expression in mice. The conditions noted are these: P<0.01. Here is the method:
In order to find the target genes that D3 may act on, the inventors performed ileal transcriptome analysis. Three samples from each group of mice were selected as targets for transcriptome sequencing. Ileal RNA was extracted using the Trizol method and an Agilent 2100 analyser was required to detect the RNA quality above 7 for RNA library construction. After passing the sample test, 2 μg of total RNA was taken from each sample to construct a transcriptome sequencing library. After data acquisition, the RNA-seq data was first de-redundantly removed using Trim galore v0.4.4 to remove junctions and low quality sequences. Using GRCm38 as the mice reference genome, HISAT2 v2.0.5 and StringTie v1.3.4 were used to quantify the abundance of each gene. Differential expression analysis was performed using DESeq2 v1.24.0.
qPCR gene expression was carried out using the StepOnePlus real-time fluorescent quantitative PCR system. Three technical replicates were performed for each sample, and the identity and purity of the amplified product were checked by analyzing the melting curve at the end of the amplification. Gene expression results were referenced to the percent expression of each gene normalized to glyceraldehyde-3-phosphate dehydrogenase (GAPDH).

The test system of assay [2] is UGN. Briefly: Mice ileum immunofluorescence. Here is the method: After the ileum was taken out, it was embedded with OCT and sliced by freezing microtome. Immunofluorescence brief steps: after the sections were washed with PBS for 3 times, 4% paraformaldehyde was added, fixed at room temperature for 10 min, and then washed with PBS for 3 times; 0.5% Triton X-100 was added, permeation at room temperature for 5 min, then washed with PBS 3 times; cell blocking solution was added and blocked at room temperature for 30 min; primary anti-UGN specific antibody (1:200) was added, 4° C. overnight and washed 3 times with PBST; the secondary antibody (1:500) was added, reacted at room temperature for 2 h, washed twice with PBST and washed once with PBS. The cells were stained with […] for additional 10 minutes at 37° C. Cleaned and sealed. Microscopic observation was recorded.

The subject of assay [3] is UGN. Briefly: ELISA detection of serum UGN in rats. The conditions noted are these: P<0.05. Here is the method:
Serum preparation: mice were placed at room temperature for 2 hours or 4° C. overnight after eye vein blood collection, and centrifuged at 1000× g for 15 minutes at 2-8° C.; the supernatant can be taken for immediate detection; or subpackaged, and the specimens were stored at −20° C. or −80° C., but repeated freezing and thawing should be avoided. Thawed samples should be centrifuged again prior to detecting.
The serum sample diluent was diluted 1:200 times and then tested. The specific operation was as follows: 5 μl of the sample was added to 45 μl of the sample diluent (1:10 dilution) and mixed. Then 15 μl of the above diluent was added to the 285 μl sample diluent (1:20 dilution) and mixed. The sample obtained after the completion of the second step was 1:200 times dilution. The sample incubation, primary antibody, horseradish peroxidase labeled avidin working solution, color development, termination and enzyme labeling detection were carried out in turn.
Background: In an ELISA, binding on a coated surface is turned into a signal by an enzyme label.

On to RTRYCRTGR [D3], for which, in the assay with fecal flora, the “abundance of Bacteroides and A. muciniphila (LEfSc analysis)” value is recorded as “significant increase”; the “abundance of Prevotella, Desulfovibrio and Lawsonia (LEfSc analysis)” value is listed as “significant decrease”; the “fecal flora (diversity analysis and PCOA) vs HFD group” value was “significantly different from that of the HFD group”. Further, in assay [1], the “daily feed intake (short-term) vs HFD group” value is “significantly lower”. Moreover, the “relative abundance of A. muciniphila in the intestine by qPCR” value in the assay with A. muciniphila is recorded as “significantly increased”. The “expression of UGN (Guca2b) in the ileum” value with Guca2b (GF mice) is given as “significantly up-regulated”. Besides, in the assay with Guca2b (SPF mice), the “expression of UGN (Guca2b) in the ileum” value is “significantly up-regulated”. Also, the “fluorescence intensity of UGN in ileal cells” value in the assay with UGN [2] is recorded as “significantly increased”. The “level of Guca2b in rat serum” value with UGN [3] is on record as “significantly increased”.
